According to patent US20220265713A1, “SPHINGOLIPIDS FOR GENERATING REGULATORY CD4+ T CELLS” (Deutsches Krebsforschungszentrum, priority 2019, published 2022):

Experiments:
naïve CD4+ T cells [1] = assay: Th17 cell in vitro differentiation of naïve CD4+ T cells (flow cytometry of IL-17); type: cell-based, mouse; conditions: sphinganine 5 μM, three days
Method: FIG. 4. Sphinganine promoted the Treg cell in vitro generation and suppressed the inflammatory Th17 cell formation. The YFP-negative CD4^+non-Treg naïve T cells were FACS-sorted (1 ×10^5 cells in 250 μl complete medium) from the Foxp3Cre-YFP mice. The naive T cells were activated with the anti-CD3 and anti-CD28 for three days, in the presence or absence of cytokine TGFβ (5 ng/ml) and IL-2 (10 ng/ml) for Treg cells and TGFβ (5 ng/ml), IL-6 (20 ng/ml) and anti-IFNy (10 μg/ml) for Th17 cells. A: flow cytometry analysis of Foxp3 protein expression after induction of Treg cell formation with sphinganine (5 μM) in the presence of cytokine TGFβ (5 ng/ml) or vehicle control DMSO (no TGFβ). B: Flow cytometry analysis of IL-17 protein expression after induction of Th17 cell formation with TGFβ (5 ng/ml), IL-6 (20 ng/ml) and anti-IFNy (10 μg/ml) in the presence or absence of sphinganine (5 μM). C: Flow cytometry analysis of Foxp3 protein expression after induction of Treg cell formation in the presence of TGFβ (5 ng/ml) and L- serine (5 μM), 3-KDS (5 μM), shinganine (5 μM), dihydroceramide (50 nM), ceramide (50 nM), sphingosine (1 μM), sphingosine-1-phosphate (1 μM), shinganine-1-phosphate (1 μM), or vehicle control DMSO (TGFβ only). […]
(§1) Flow Cytometry. […] Samples were run on the LSR II and analyzed using the Flowjo software (FlowJo, LLC, BD). […]

EAE mice = assay: EAE mouse model for multiple sclerosis (MOG35-55 immunization), clinical scoring; type: in vivo; conditions: C57BL/6 mice, sphinganine 1000 μg/kg body weight intraperitoneally, one injection every two days, day 1 to day 15, FIG. 5
Method: EAE induction and monitoring. Each mouse was subcutaneously immunized with 200 μg MOG35-55 peptide emulsified in Freund's Complete Adjuvant. Pertussis toxin (400 ng per mouse) was injected intraperitoneally. Where indicated, mice were intraperitoneally injected with sphinganine (every other day from the day of immunization to the end of the experiments). EAE symptoms were scored every day using the following scoring standard: 0, no sign; 1, limp tail; 2, paraparesis (incomplete paralysis of 1 or 2 hind limbs); 3, paraplegia (complete paralysis of 2 hind limbs); 4, paraplegia with forelimb weakness or paralysis; 5, moribund state or death. For the mouse welfare reason, we sacrificed the mice if the score reached 3. […] C57BL/6 mice were subcutaneously immunized with 200 μg MOG35-55 peptide emulsified in Freund's Complete Adjuvant to induce EAE development. Pertussis toxin (400 ng per mouse) was injected intraperitoneally. Mice were intraperitoneally injected with sphinganine (1000 μg/kg body weight, one injection every two days, from day 1 to day 15). EAE symptoms were scored every day.

naïve CD4+ T cells [2] = assay: Treg cell in vitro differentiation of naïve CD4+ T cells (flow cytometry of Foxp3); type: cell-based, mouse; conditions: sphinganine 5 μM, three days; for Foxp3 protein expression: anti-CD3, anti-CD28, TGFβ 5 ng/ml, IL-2 10 ng/ml, vs vehicle DMSO, FIG. 4A/4C
Method: FIG. 4. Sphinganine promoted the Treg cell in vitro generation and suppressed the inflammatory Th17 cell formation. The YFP-negative CD4^+non-Treg naïve T cells were FACS-sorted (1 ×10^5 cells in 250 μl complete medium) from the Foxp3Cre-YFP mice. The naive T cells were activated with the anti-CD3 and anti-CD28 for three days, in the presence or absence of cytokine TGFβ (5 ng/ml) and IL-2 (10 ng/ml) for Treg cells and TGFβ (5 ng/ml), IL-6 (20 ng/ml) and anti-IFNy (10 μg/ml) for Th17 cells. A: flow cytometry analysis of Foxp3 protein expression after induction of Treg cell formation with sphinganine (5 μM) in the presence of cytokine TGFβ (5 ng/ml) or vehicle control DMSO (no TGFβ). B: Flow cytometry analysis of IL-17 protein expression after induction of Th17 cell formation with TGFβ (5 ng/ml), IL-6 (20 ng/ml) and anti-IFNy (10 μg/ml) in the presence or absence of sphinganine (5 μM). C: Flow cytometry analysis of Foxp3 protein expression after induction of Treg cell formation in the presence of TGFβ (5 ng/ml) and L- serine (5 μM), 3-KDS (5 μM), shinganine (5 μM), dihydroceramide (50 nM), ceramide (50 nM), sphingosine (1 μM), sphingosine-1-phosphate (1 μM), shinganine-1-phosphate (1 μM), or vehicle control DMSO (TGFβ only). D: Structures of sphingolipids, as indicated, and sphingolipid biosynthetic pathway are depicted. The numbers in each FACS plot show the percentages of the indicated cell population within the total population of cells shown in the FACS plot.
Mouse primary T cell culture. Complete medium was used for cell culture and was prepared by supplementing RPMI 1640 plain medium with 10% fetal calf serum, penicillin/streptomycin antibiotics and non-essential amino acids. For Treg and Th17 cell in vitro differentiation, naïve splenic T cells were purified from the Sptic2^+/+Foxp3Cre-YFP wild type mice using the flow cytometry sorter. […]
as §1

CCCCCCCCCCCCCCC[C@@H](O)[C@@H](N)CO [sphinganine]
IL-17 production / IL-17 protein expression (naïve CD4+ T cells [1]; Th17 cell-differentiation condition: TGFβ 5 ng/ml, IL-6 20 ng/ml, anti-IFNy 10 μg/ml, FIG. 4B): reduced | inflammatory Th17 cell formation (naïve CD4+ T cells [1]; TGFβ, IL-6, anti-IFNy): suppressed | EAE clinical scores / EAE development (EAE mice): reduced | EAE clinical scores / EAE development (EAE mice; listed as Sphinganine): ameliorated EAE development | Treg cell in vitro generation / Treg cell formation (naïve CD4+ T cells [2]; Treg cell-inducing condition (anti-CD3, anti-CD28, TGFβ, IL-2)): promoted | Foxp3 protein expression (naïve CD4+ T cells [2]): increase | Foxp3 protein expression (naïve CD4+ T cells [2]; listed as Sphinganine): further increased
